Test results published in US20240400577A1, “MODULATORS OF PROTEIN KINASES” (VIBLIOME THERAPEUTICS, LLC, priority 2021, published 2024).
pIC50: −log10 of the molar value.

Assays:
Experiment in all cases: Kinase panel enzymatic inhibition assay (Nanosyn)
Assay type in all cases: biochemical
[1] = target: T1, ARAF (Homo sapiens, UniProt P10398); details: compound 5 μM; ATP at Km; 30-minute pre-incubation
T1 construct: purchased Nanosyn (contract screening)
T1 sequence (P10398 1-606): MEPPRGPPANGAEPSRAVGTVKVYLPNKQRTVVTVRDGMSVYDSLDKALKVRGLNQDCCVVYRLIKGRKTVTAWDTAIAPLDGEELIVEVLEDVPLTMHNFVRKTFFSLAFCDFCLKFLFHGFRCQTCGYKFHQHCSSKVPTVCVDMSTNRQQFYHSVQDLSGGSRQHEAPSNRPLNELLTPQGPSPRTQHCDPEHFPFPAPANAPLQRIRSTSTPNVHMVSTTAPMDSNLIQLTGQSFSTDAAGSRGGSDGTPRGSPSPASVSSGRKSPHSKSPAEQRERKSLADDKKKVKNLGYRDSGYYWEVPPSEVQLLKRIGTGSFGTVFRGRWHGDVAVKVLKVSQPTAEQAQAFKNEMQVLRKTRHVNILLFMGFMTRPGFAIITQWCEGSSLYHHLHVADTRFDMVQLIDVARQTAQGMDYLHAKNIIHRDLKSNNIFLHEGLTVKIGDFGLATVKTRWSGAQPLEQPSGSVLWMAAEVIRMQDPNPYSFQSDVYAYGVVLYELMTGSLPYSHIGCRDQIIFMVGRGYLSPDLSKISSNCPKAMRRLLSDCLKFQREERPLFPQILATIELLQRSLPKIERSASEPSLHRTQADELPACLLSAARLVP
Outline: (§1)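 Enzymatic inhibition measured within a panel of at least 300 kinases, using a validated format such as Caliper LabChip mobility shift, ADP detection or time-resolved fluorescence. Compounds tested at 5 μM with ATP at each kinase's Km, after a 30-minute pre-incubation. Values given as percent inhibition or IC50.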

[2] = target: T2, BRK (Homo sapiens, UniProt Q13882); details: compound 5 μM; ATP at Km; 30-minute pre-incubation
T2 construct: purchased Nanosyn (contract screening)
Outline: as §1

[3] = target: T3, CRAF (Homo sapiens, UniProt P04049); details: compound 5 μM; ATP at Km; 30-minute pre-incubation
T3 construct: purchased Nanosyn (contract screening)
Outline: as §1

[4] = target: T4, CSF1R (Homo sapiens, UniProt P07333); details: compound 5 μM; ATP at Km; 30-minute pre-incubation
T4 construct: purchased Nanosyn (contract screening)
Outline: as §1

[5] = target: T5, CSK (Homo sapiens, UniProt P41240); details: compound 5 μM; ATP at Km; 30-minute pre-incubation
T5 construct: purchased Nanosyn (contract screening)
Outline: as §1

[6] = target: T6, DDR2 (Homo sapiens, UniProt Q16832); details: ATP at Km, 30-minute pre-incubation; for inhibition at 5 µM: compound 5 μM; for pIC50: read-out: kinase inhibition in terms of IC50, DDR2
T6 construct: purchased Nanosyn (contract screening)
T6 sequence (Q16832 22-855): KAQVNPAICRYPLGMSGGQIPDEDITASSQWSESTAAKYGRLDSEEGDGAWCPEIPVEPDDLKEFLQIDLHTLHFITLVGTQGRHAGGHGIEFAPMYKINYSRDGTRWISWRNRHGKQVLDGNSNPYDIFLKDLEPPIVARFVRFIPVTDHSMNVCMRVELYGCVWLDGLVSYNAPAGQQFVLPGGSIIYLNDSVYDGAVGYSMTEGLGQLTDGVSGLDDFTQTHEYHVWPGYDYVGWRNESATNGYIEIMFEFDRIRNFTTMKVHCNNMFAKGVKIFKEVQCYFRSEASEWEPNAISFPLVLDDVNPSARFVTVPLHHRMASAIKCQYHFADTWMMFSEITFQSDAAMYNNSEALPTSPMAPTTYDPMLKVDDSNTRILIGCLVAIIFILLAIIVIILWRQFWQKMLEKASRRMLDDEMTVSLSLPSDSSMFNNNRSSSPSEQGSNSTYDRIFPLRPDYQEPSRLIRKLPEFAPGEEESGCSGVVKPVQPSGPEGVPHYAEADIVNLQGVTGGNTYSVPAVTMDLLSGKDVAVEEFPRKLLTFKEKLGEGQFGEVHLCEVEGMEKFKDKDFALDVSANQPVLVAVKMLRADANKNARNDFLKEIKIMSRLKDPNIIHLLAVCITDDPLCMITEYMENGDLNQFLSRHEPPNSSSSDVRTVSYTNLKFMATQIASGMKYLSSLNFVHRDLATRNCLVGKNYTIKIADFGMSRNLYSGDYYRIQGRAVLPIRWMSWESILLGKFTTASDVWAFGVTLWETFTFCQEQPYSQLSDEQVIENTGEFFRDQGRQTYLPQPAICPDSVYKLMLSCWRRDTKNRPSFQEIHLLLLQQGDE
Outline: as §1

[7] = target: T7, ERBB4 (Homo sapiens, UniProt Q15303); details: compound 5 μM; ATP at Km; 30-minute pre-incubation
T7 construct: purchased Nanosyn (contract screening)
Outline: as §1

[8] = target: T8, KIT (Homo sapiens, UniProt P10721); details: compound 5 μM; ATP at Km; 30-minute pre-incubation
T8 construct: purchased Nanosyn (contract screening)
Outline: as §1

[9] = target: T9, LYNa (Homo sapiens, UniProt P07948); details: compound 5 μM; ATP at Km; 30-minute pre-incubation
T9 construct: purchased Nanosyn (contract screening)
Outline: as §1

[10] = target: T10, LYNb (Homo sapiens, UniProt P07948); details: compound 5 μM; ATP at Km; 30-minute pre-incubation
T10 construct: purchased Nanosyn (contract screening)
Outline: as §1

[11] = target: T11, PKCb1 (Homo sapiens, UniProt P05771); details: compound 5 μM; ATP at Km; 30-minute pre-incubation
T11 construct: Nanosyn (contract laboratory that ran the panel)
Outline: as §1

[12] = target: T12, RET (Homo sapiens, UniProt P07949); details: compound 5 μM; ATP at Km; 30-minute pre-incubation
T12 construct: Nanosyn (contract laboratory that ran the panel)
Outline: as §1

[13] = target: T13, YES (Homo sapiens, UniProt P07947); details: compound 5 μM; ATP at Km; 30-minute pre-incubation
T13 construct: Nanosyn (contract laboratory that ran the panel)
Outline: as §1

T10 sequence (P07948 1-491 isoform P07948-2): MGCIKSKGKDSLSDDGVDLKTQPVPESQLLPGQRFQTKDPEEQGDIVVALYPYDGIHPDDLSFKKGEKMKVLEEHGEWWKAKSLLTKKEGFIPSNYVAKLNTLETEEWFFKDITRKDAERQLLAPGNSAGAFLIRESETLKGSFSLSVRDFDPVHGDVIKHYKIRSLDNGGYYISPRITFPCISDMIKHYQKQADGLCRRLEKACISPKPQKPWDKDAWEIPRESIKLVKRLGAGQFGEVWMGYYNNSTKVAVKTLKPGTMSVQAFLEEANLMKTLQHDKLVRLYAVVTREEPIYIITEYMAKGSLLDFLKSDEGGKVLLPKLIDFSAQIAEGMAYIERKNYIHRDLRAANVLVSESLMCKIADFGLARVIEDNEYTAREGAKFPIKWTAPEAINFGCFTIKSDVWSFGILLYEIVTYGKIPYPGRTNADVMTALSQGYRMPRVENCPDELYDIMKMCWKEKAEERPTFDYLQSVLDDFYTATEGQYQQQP
T11 sequence (P05771 whole entry): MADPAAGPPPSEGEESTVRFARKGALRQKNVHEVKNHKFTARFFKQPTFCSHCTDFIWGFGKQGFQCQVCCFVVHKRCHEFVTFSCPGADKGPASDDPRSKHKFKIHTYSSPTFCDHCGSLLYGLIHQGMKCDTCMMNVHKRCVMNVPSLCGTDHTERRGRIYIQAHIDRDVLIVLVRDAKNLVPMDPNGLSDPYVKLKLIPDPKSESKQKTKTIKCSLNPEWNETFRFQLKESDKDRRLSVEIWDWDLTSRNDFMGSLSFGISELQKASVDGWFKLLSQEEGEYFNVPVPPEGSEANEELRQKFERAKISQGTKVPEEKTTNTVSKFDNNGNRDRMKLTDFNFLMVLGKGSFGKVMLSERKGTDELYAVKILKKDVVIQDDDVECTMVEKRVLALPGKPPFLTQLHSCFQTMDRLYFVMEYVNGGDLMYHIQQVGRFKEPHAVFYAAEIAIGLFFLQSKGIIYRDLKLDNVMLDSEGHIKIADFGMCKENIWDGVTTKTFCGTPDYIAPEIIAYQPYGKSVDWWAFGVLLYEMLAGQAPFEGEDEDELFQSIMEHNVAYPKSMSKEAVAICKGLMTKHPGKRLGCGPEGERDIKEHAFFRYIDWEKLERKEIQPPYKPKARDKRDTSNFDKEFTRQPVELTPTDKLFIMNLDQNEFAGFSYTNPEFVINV
T8 sequence (P10721 26-976): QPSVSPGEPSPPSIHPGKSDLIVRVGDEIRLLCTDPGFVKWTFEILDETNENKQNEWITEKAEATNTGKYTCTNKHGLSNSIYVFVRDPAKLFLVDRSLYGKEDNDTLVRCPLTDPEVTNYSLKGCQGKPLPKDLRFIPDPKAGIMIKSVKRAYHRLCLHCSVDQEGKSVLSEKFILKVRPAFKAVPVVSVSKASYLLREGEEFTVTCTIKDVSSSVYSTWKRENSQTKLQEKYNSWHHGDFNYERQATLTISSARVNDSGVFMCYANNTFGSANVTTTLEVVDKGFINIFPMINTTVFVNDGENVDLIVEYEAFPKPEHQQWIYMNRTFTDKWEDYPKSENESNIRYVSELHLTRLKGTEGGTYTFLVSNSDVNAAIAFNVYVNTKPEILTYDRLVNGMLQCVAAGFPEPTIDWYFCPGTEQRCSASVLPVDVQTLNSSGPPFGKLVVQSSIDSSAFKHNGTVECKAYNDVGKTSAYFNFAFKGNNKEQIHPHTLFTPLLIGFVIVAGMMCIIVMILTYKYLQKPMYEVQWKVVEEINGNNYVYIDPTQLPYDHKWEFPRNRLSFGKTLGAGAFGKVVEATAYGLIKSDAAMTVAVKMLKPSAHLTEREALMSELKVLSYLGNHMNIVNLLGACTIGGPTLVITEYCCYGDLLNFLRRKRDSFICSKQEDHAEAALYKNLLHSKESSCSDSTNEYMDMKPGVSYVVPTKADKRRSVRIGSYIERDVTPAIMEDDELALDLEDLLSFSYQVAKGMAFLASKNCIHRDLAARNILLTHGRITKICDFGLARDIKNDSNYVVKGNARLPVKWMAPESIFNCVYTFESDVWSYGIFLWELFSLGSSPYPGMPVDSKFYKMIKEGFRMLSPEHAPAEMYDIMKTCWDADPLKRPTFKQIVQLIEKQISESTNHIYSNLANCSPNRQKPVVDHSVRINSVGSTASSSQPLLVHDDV
T3 sequence (P04049 whole entry): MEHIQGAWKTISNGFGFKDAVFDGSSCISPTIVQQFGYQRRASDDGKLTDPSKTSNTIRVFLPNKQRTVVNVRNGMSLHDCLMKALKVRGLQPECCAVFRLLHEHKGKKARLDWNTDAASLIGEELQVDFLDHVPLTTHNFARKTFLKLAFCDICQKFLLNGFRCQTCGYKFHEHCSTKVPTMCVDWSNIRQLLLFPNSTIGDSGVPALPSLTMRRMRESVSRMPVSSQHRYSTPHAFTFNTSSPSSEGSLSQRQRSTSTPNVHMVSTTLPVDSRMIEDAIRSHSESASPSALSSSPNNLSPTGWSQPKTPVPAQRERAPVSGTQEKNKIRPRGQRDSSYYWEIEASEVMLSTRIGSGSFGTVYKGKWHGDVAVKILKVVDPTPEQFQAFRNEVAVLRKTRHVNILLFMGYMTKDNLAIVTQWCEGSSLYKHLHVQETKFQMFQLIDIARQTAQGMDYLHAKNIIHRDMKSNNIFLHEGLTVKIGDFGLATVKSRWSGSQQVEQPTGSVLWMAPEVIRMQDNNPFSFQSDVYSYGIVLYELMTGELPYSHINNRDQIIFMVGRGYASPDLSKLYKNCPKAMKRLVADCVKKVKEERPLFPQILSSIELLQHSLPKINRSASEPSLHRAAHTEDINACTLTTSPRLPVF
T2 sequence (Q13882 whole entry): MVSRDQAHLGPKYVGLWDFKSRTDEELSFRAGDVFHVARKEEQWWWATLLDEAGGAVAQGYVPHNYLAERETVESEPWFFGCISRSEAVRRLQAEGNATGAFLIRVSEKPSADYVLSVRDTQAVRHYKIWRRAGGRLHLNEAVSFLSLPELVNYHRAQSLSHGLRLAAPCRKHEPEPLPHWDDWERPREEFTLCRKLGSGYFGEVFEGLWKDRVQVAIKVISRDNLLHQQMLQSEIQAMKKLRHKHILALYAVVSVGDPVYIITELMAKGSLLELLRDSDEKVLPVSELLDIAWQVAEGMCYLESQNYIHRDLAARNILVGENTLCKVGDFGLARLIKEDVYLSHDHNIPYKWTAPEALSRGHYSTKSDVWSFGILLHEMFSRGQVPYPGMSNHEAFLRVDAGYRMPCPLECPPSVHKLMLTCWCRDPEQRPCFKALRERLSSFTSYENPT
T9 sequence (P07948 whole entry): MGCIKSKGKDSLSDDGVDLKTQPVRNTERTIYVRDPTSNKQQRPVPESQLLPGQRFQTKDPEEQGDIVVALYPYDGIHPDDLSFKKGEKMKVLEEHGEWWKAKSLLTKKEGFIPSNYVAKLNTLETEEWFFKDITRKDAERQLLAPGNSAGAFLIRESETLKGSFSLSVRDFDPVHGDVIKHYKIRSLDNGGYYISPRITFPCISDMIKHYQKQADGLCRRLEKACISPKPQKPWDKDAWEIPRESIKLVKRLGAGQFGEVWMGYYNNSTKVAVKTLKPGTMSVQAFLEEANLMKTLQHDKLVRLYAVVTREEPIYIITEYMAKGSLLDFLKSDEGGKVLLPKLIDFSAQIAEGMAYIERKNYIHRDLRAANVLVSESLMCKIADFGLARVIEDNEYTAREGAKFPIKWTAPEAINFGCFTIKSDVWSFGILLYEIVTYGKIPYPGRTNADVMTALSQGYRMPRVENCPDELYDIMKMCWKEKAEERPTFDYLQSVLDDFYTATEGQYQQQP
T12 sequence (P07949 29-1114): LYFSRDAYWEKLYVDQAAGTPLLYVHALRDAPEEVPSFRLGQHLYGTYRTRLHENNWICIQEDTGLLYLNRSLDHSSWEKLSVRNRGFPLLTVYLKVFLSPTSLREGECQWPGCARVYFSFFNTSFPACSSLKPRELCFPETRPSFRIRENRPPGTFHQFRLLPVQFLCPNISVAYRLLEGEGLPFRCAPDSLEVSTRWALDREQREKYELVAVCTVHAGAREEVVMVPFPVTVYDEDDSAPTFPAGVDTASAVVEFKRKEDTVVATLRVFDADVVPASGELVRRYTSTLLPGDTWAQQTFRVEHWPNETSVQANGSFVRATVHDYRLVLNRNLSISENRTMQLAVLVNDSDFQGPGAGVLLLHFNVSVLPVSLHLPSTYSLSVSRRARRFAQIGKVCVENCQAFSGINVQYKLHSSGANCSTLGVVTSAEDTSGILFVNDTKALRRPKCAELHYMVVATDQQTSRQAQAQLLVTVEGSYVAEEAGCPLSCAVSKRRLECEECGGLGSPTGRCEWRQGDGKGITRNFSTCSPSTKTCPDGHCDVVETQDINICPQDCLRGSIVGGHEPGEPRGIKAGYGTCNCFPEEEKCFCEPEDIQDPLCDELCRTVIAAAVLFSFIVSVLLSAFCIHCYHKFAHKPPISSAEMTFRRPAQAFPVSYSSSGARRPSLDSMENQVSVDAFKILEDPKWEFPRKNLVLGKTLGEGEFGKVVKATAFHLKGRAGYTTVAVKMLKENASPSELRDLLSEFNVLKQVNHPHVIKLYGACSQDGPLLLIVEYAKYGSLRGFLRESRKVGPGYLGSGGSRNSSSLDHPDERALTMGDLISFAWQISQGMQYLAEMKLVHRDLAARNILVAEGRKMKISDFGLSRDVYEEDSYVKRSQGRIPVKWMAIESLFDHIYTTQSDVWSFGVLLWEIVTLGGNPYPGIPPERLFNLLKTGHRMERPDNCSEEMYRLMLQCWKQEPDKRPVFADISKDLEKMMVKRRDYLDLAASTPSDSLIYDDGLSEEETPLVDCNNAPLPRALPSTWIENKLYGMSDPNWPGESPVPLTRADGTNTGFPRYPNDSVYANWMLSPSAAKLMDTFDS

Row | inhibition at 5 µM [1] | inhibition at 5 µM [2] | inhibition at 5 µM [3] | inhibition at 5 µM [4] | inhibition at 5 µM [5] | inhibition at 5 µM [6] | inhibition at 5 µM [7] | inhibition at 5 µM [8] | inhibition at 5 µM [9] | inhibition at 5 µM [10] | inhibition at 5 µM [11] | inhibition at 5 µM [12] | inhibition at 5 µM [13] | pIC50 [6] | SMILES
1 | ≥ 95% | < 79% | ≥ 95% | < 79% | < 79% | < 79% | < 79% | 80 to 89% | ≥ 95% | 90 to 94% | < 79% | < 79% | < 79% |  | Cc1ccc(NC(=O)c2cc([S+](C)[O-])n(-c3ccc(F)cc3)n2)cc1Nc1ccc2ncn(C)c(=O)c2c1 (stereo not shown) [Ex5, 1-(4-fluorophenyl)-N-(4-methyl-3-((3-methyl-4-oxo-3,4-dihydroquinazolin-6-yl)amino)phenyl)-5-(methylsulfinyl)-1H-pyrazole-3-carboxamide]
2 | < 79% | 80 to 89% | ≥ 95% | 90 to 94% | 80 to 89% | < 79% | < 79% | 90 to 94% | 90 to 94% | ≥ 95% | < 79% | 90 to 94% | 80 to 89% |  | Cc1ccc(NC(=O)c2cc([S+](C)[O-])n(-c3ccc(F)cc3)n2)cc1C#Cc1cnc2cccnn12 (stereo not shown) [Ex6, 1-(4-fluorophenyl)-N-(3-(imidazo[1,2-b]pyridazin-3-ylethynyl)-4-methylphenyl)-5-(methylsulfinyl)-1H-pyrazole-3-carboxamide]
3 | < 79% | < 79% | ≥ 95% | < 79% | < 79% | < 79% | < 79% | < 79% | < 79% | < 79% | < 79% | < 79% | < 79% |  | CNC(=O)c1cc(Oc2ccc(F)c(NC(=O)c3cc([S+](C)[O-])n(-c4ccc(F)cc4)n3)c2)ccn1 (stereo not shown) [Ex7, 4-(4-fluoro-3-(1-(4-fluorophenyl)-5-(methylsulfinyl)-1H-pyrazole-3-carboxamido)phenoxy)-N-methylpicolinamide]
4 | ≥ 95% | < 79% | ≥ 95% | < 79% | < 79% | 90 to 94% | < 79% | < 79% | < 79% | < 79% | < 79% | < 79% | < 79% |  | Cc1ccc(NC(=O)c2cc(S(C)(=O)=O)n(-c3ccc(F)cc3)n2)cc1-c1cc(OCCO)nc(N2CCOCC2)c1 [Ex9, 1-(4-fluorophenyl)-N-(3-(2-(2-hydroxyethoxy)-6-morpholinopyridin-4-yl)-4-methylphenyl)-5-(methylsulfonyl)-1H-pyrazole-3-carboxamide]
5 | ≥ 95% | < 79% | ≥ 95% | < 79% | < 79% | 80 to 89% | < 79% | < 79% | < 79% | < 79% | < 79% | < 79% | < 79% |  | Cc1ccc(NC(=O)c2cc([S+](C)[O-])n(-c3ccc(F)cc3)n2)cc1-c1cc(OCCO)nc(N2CCOCC2)c1 (stereo not shown) [Ex10, 1-(4-fluorophenyl)-N-(3-(2-(2-hydroxyethoxy)-6-morpholinopyridin-4-yl)-4-methylphenyl)-5-(methylsulfinyl)-1H-pyrazole-3-carboxamide]
6 | ≥ 95% | < 79% | ≥ 95% | < 79% | < 79% | < 79% | < 79% | < 79% | < 79% | < 79% | < 79% | < 79% | < 79% |  | Cc1ccc(NC(=O)c2cc([S+](C)[O-])n(-c3ccc(F)cc3)n2)cc1-c1cc(N2CCOCC2)c(=O)n(C)c1 (stereo not shown) [Ex11, 1-(4-fluorophenyl)-N-(4-methyl-3-(1-methyl-5-morpholino-6-oxo-1,6-dihydropyridin-3-yl)phenyl)-5-(methylsulfinyl)-1H-pyrazole-3-carboxamide]

Continued, compound first:

Row | SMILES | inhibition at 5 µM [1] | inhibition at 5 µM [2] | inhibition at 5 µM [3] | inhibition at 5 µM [4] | inhibition at 5 µM [5] | inhibition at 5 µM [6] | inhibition at 5 µM [7] | inhibition at 5 µM [8] | inhibition at 5 µM [9] | inhibition at 5 µM [10] | inhibition at 5 µM [11] | inhibition at 5 µM [12] | inhibition at 5 µM [13] | pIC50 [6]
7 | Cc1ccc(NC(=O)c2cc(S(C)(=O)=O)n(-c3ccc(F)cc3)n2)cc1Nc1ccc2ncn(C)c(=O)c2c1 [Ex4, 1-(4-fluorophenyl)-N-(4-methyl-3-((3-methyl-4-oxo-3,4-dihydroquinazolin-6-yl)amino)phenyl)-5-(methylsulfonyl)-1H-pyrazole-3-carboxamide] | ≥ 95% | < 79% | ≥ 95% | < 79% | < 79% | ≥ 95% | < 79% | 90 to 94% | < 79% | < 79% | < 79% | 90 to 94% | < 79% | 
8 | CSc1cc(C(=O)Nc2cc(Oc3ccnc(C(=O)NC4CNC4)c3)ccc2F)nn1-c1ccc(F)cc1 [Ex8, N-(azetidin-3-yl)-4-(4-fluoro-3-(1-(4-fluorophenyl)-5-(methylthio)-1H-pyrazole-3-carboxamido)phenoxy)picolinamide] | < 79% | < 79% | ≥ 95% | < 79% | < 79% | < 79% | < 79% | < 79% | < 79% | < 79% | 80 to 89% | < 79% | < 79% | 
9 | COc1cc2nccc(Oc3ccc(NC(=O)c4cc(S(C)(=O)=O)n(-c5ccc(F)cc5)n4)c(F)c3)c2cc1OC [Ex71, N-(4-((6,7-dimethoxyquinolin-4-yl)oxy)-2-fluorophenyl)-1-(4-fluorophenyl)-5-(methylsulfonyl)-1H-pyrazole-3-carboxamide] |  |  |  |  |  |  |  |  |  |  |  |  |  | > 6.30
10 | COc1cc2nccc(Oc3ccc(NC(=O)c4cc(S(C)(=O)=O)n(-c5ccc(F)cc5)n4)cc3F)c2cc1OC [Ex73, N-(4-((6,7-dimethoxyquinolin-4-yl)oxy)-3-fluorophenyl)-1-(4-fluorophenyl)-5-(methylsulfonyl)-1H-pyrazole-3-carboxamide] |  |  |  |  |  |  |  |  |  |  |  |  |  | > 6.30
